Experimental data from patent US4749704A, “Cyclopenta[d]pyrimidine derivatives and use as antidepressants” (Sankyo Company Limited, priority 1985, dated 1988).

How the values were obtained:
[1] = test system: reserpine-induced ptosis; experiment: Test for Anti-reserpine Activity (inhibition of reserpine-induced ptosis); assay type: in vivo, male mice of the ddy strain; conditions: mice, oral, reserpine 2 mg/kg s.c., ptosis at 90, 120 and 180 min
Description: The test animals used were male mice of the ddy strain, each weighing 23-25 g. Each compound was tested on a group of five such mice. Each test compound was employed in the form of a solution or suspension in a physiological saline solution containing 0.3% w/v carboxymethylcellulose. The test employed was a partial modification of the method of Rubin et al. [J. Pharmacol. Exptl. Therap., 120, 125 (1957)].
2 mg/kg of reserpine were injected subcutaneously into each mouse and, immediately after the injection, the solution or suspension of the test compound was given orally in a dose of 5 mg/kg, 10 mg/kg or 25 mg/kg, as shown in the following Table. The animals were observed 90 minutes, 120 minutes and 180 minutes after administration to evaluate the inhibition of ptosis. At each observation, each mouse was assigned from 0 to 3 points corresponding to the degree of ptosis, as follows:
0 points: eyes completely open;
1 point: eyes about one third closed;
2 points: eyes about two thirds closed;
3 points: eyes completely closed.
For each mouse, the number of points from all three observations were added together, and the percentage inhibition of reserpine-induced ptosis (Ri) was calculated from the following formula:
Po =total number of points from three observations of an animal to which reserpine alone was administered; and
Pt =total number of points from three observations of an animal to which reserpine and the test compound were administered.

[2] = test system: male rats of the F-344 strain; experiment: Acute Toxicity Test (single oral dose, 7 days observation); assay type: in vivo, rat (F-344 strain)
Description: The test animals used were male rats of the F-344 strain, each weighing from 150 to 170 g. One group of animals was fed normally, whilst another group was starved for 24 hours before administration of the test compound. To each animal was administered orally a single dose of the test compound in the amount shown in the following Table; the animals were then placed under observation for 7 days after administration. The results are reported in Table as "Mortality", where the numerator indicates the number of deaths in the observation period and the denominator indicates the number of animals tested with the particular test compound at the particular dose.

[3] = test system: monoamine oxidase; experiment: Toxicity to the Liver (inhibition of monoamine oxidase in the rat liver); assay type: biochemical; conditions: estimated from inhibition of monoamine oxidase in the rat liver
[4] = background statement; cited from earlier work

Row | SMILES | Ri % (percentage inhibition of reserpine-induced ptosis) ([1]; dose 25 mg (25 mg/kg)) [%] | Mortality (deaths/animals tested) ([2]; fed rats, single oral dose 200 mg) | Mortality (deaths/animals tested) ([2]; starved (24 hours) rats, single oral dose 200 mg) | Ri % (percentage inhibition of reserpine-induced ptosis) ([1]; dose 5 mg (5 mg/kg)) [%] | Ri % (percentage inhibition of reserpine-induced ptosis) ([1]; dose 10 mg (10 mg/kg)) [%] | Mortality (deaths/animals tested) ([2]; fed rats, single oral dose 800 mg) | Mortality (deaths/animals tested) ([2]; starved (24 hours) rats, single oral dose 1500 mg) | toxicity to the liver relative to the prior art compound (Compound A) [3] | side-effect activities [4]
1 | N#Cc1ccc(Nc2ncnc3c2CCC3)cc1 [Compound A, 4-(4-cyanoanilino)-6,7-dihydro-5H-cyclopenta[d]pyrimidine, reference compound] | 85.0 | 1/5 | 3/5 |  |  |  |  |  | 
2 | N#Cc1ccc(Nc2ncnc3c2CCC3O)cc1 (stereo not shown) [Compound No. 31, 4-(4-Cyanoanilino)-6,7-dihydro-7-hydroxy-5H-cyclopenta[d]pyrimidine] | 85.7 |  |  | 50 | 71.4 | 0/5 | 0/5 | about half that of the prior art compound | 
3 | CN(C)CCCN1c2ccccc2CCc2ccccc21 [Imipramine] |  |  |  |  |  |  |  |  | exhibits antihistaminic and anticholinergic activities
